Patent publication US9980943B2, “Methods of treating muscular dystrophy” (BOARD OF REGENTS OF THE NEVADA SYSTEM OF HIGHER EDUCATION, …, priority 2013, dated 2018)

Key:
Assay type in all cases: cell-based, mouse
[1] = test system: α7 integrin (LacZ reporter in α7βgal+/− myoblasts); experiment: Myoblast α7+/LacZ integrin FDG assay (Burkin assay in myoblasts, 96-well); conditions: α7+/LacZ myoblasts, 96-well
[2] = test system: α7 integrin (LacZ reporter in α7+/LacZ myotubes); experiment: Myotube α7 integrin FDG assay (Burkin assay in myotubes, 96-well); conditions: myotubes
[3] = test system: β-galactosidase in CMV-LacZ C2C12 myotubes; experiment: CMV-LacZ secondary screen in C2C12 myotubes (β-Gal stabilizing assay); conditions: for CMV-LACZ in Myotubes (β-galactosidase activity relative to DMSO): CMV-LacZ C2C12 myotubes, 96-well format; for CMV-LACZ in Myotubes, signal relative to DMSO: C2C12 CMV-LacZ myotubes, fold relative to DMSO
Method in brief: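 β-gal stabilization was measured in C2C12 myoblasts or myotubes stably transfected with a CMV-driven LacZ construct, using the FDG β-gal assay. Compounds were tested in dose-response at 0.5, 1, 5, 10, 20 and 40 μM, with two replicates per point.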

Compound | Burkin Assay in Myoblasts, value relative to DMSO ([1]; 0.5 uM) | Burkin Assay in Myoblasts, value relative to DMSO ([1]; 1 uM) | Burkin Assay in Myoblasts, value relative to DMSO ([1]; 5 uM) | Burkin Assay in Myoblasts, value relative to DMSO ([1]; 10 uM) | Burkin Assay in Myoblasts, value relative to DMSO ([1]; 20 uM) | Burkin Assay in Myoblasts, value relative to DMSO ([1]; 40 uM) | Burkin Assay in Myotubes (signal relative to DMSO) ([2]; 0.5 uM) | Burkin Assay in Myotubes (signal relative to DMSO) ([2]; 1 uM) | Burkin Assay in Myotubes (signal relative to DMSO) ([2]; 5 uM) | Burkin Assay in Myotubes (signal relative to DMSO) ([2]; 10 uM) | Burkin Assay in Myotubes (signal relative to DMSO) ([2]; 20 uM) | Burkin Assay in Myotubes (signal relative to DMSO) ([2]; 40 uM) | CMV-LACZ in Myotubes, signal relative to DMSO ([3]; 5 uM) | CMV-LACZ in Myotubes, signal relative to DMSO ([3]; 10 uM) | CMV-LACZ in Myotubes, signal relative to DMSO ([3]; 20 uM) | CMV-LACZ in Myotubes, signal relative to DMSO ([3]; 40 uM) | also measured
O=C(COC(=O)c1cc2ccccc2oc1=O)Nc1ccc(F)cc1F [MLS000516719-01] | 1.006 | 1.048 | 1.0321 | 1.068 | 0.9197 | 0.9651 | 0.8618 | 1.0239 | 1.203 | 1.184 | 1.107 | 1.175 |  |  |  |  | CMV-LACZ in Myotubes (β-galactosidase activity relative to DMSO) ([3]; 5 uM): 0.8894; CMV-LACZ in Myotubes (β-galactosidase activity relative to DMSO) ([3]; 10 uM): 1.114; CMV-LACZ in Myotubes (β-galactosidase activity relative to DMSO) ([3]; 20 uM): 1.103; CMV-LACZ in Myotubes (β-galactosidase activity relative to DMSO) ([3]; 40 uM): 1.072
Cc1cc(-c2ccccc2)n2nc(N)nc2n1 [MLS000122180-01] | 0.8023 | 0.8424 | 0.9726 | 0.9665 | 1.004 | 0.9116 | 1.006 | 0.9341 | 1.027 | 0.7456 | 0.9557 | 0.9496 | 0.7773 | 0.8808 | 0.8136 | 1.007 | 
Cn1c(=O)c2c(nc(Sc3ncnn3CC(=O)NC3CCCCC3)n2C)n(C)c1=O [MLS000663651-01] |  |  |  |  |  |  |  |  |  |  |  |  | 0.9636 | 0.9788 | 0.949 | 0.861 | Burkin Assay in Myoblasts, signal relative to DMSO ([1]; 0.5 uM): 1.143; Burkin Assay in Myoblasts, signal relative to DMSO ([1]; 1 uM): 1.059; Burkin Assay in Myoblasts, signal relative to DMSO ([1]; 5 uM): 0.9834; Burkin Assay in Myoblasts, signal relative to DMSO ([1]; 10 uM): 0.9551; Burkin Assay in Myoblasts, signal relative to DMSO ([1]; 20 uM): 0.9504; Burkin Assay in Myoblasts, signal relative to DMSO ([1]; 40 uM): 1.048; Burkin Assay in Myotubes, α7 integrin LacZ reporter signal relative to DMSO ([2]; 0.5 uM): 0.946; Burkin Assay in Myotubes, α7 integrin LacZ reporter signal relative to DMSO ([2]; 1 uM): 0.9099; Burkin Assay in Myotubes, α7 integrin LacZ reporter signal relative to DMSO ([2]; 5 uM): 1.106; Burkin Assay in Myotubes, α7 integrin LacZ reporter signal relative to DMSO ([2]; 10 uM): 1.007; Burkin Assay in Myotubes, α7 integrin LacZ reporter signal relative to DMSO ([2]; 20 uM): 1.017; Burkin Assay in Myotubes, α7 integrin LacZ reporter signal relative to DMSO ([2]; 40 uM): 0.9648
COC(=O)c1ccc(COC(=O)CNC(=O)c2cccs2)cc1 [MLS001123810-01] | 0.9767 | 0.9524 | 0.9782 | 0.9779 | 0.8853 | 0.8729 | 0.974 | 0.9657 | 1.417 | 1.116 | 0.9515 | 0.9694 | 0.8812 | 0.815 | 1.159 | 0.9346 | 
O=C(/C(=C(/[O-])c1ccccc1)[n+]1ccccc1)c1ccc([N+](=O)[O-])cc1 [MLS000705922-01] | 0.9627 | 1.02 | 0.7282 | 0.7283 | 0.8892 | 0.8783 | 0.8984 | 1.137 | 0.8511 | 0.9544 | 0.9072 | 1.039 |  |  |  |  | CMV-LACZ in Myotubes (β-galactosidase activity relative to DMSO) ([3]; 5 uM): 0.8776; CMV-LACZ in Myotubes (β-galactosidase activity relative to DMSO) ([3]; 10 uM): 0.9306; CMV-LACZ in Myotubes (β-galactosidase activity relative to DMSO) ([3]; 20 uM): 0.9302; CMV-LACZ in Myotubes (β-galactosidase activity relative to DMSO) ([3]; 40 uM): 0.9947
O=C(N/N=C/c1cn[nH]c1-c1ccc(F)cc1)c1ccncc1 [MLS000698686-01] | 1.037 | 1.018 | 1.054 | 1.075 | 0.8456 | 0.8252 | 0.8838 | 0.6159 | 1.013 | 0.966 | 0.6986 | 0.9722 | 0.8364 | 0.9727 | 0.8864 | 0.8864 | 
CS(=O)(=O)c1ccc(Cl)c(NC(=O)CSc2nncn2-c2ccccc2)c1 [MLS001177364-01] |  |  |  |  |  |  |  |  |  |  |  |  | 1.262 | 0.9578 | 1.053 | 0.9743 | Burkin Assay in Myoblasts, signal relative to DMSO ([1]; 0.5 uM): 1.082; Burkin Assay in Myoblasts, signal relative to DMSO ([1]; 1 uM): 0.9869; Burkin Assay in Myoblasts, signal relative to DMSO ([1]; 5 uM): 0.9655; Burkin Assay in Myoblasts, signal relative to DMSO ([1]; 10 uM): 0.9015; Burkin Assay in Myoblasts, signal relative to DMSO ([1]; 20 uM): 1.005; Burkin Assay in Myoblasts, signal relative to DMSO ([1]; 40 uM): 0.8386; Burkin Assay in Myotubes, α7 integrin LacZ reporter signal relative to DMSO ([2]; 0.5 uM): 1.036; Burkin Assay in Myotubes, α7 integrin LacZ reporter signal relative to DMSO ([2]; 1 uM): 0.9519; Burkin Assay in Myotubes, α7 integrin LacZ reporter signal relative to DMSO ([2]; 5 uM): 1.235; Burkin Assay in Myotubes, α7 integrin LacZ reporter signal relative to DMSO ([2]; 10 uM): 1.213; Burkin Assay in Myotubes, α7 integrin LacZ reporter signal relative to DMSO ([2]; 20 uM): 1.125; Burkin Assay in Myotubes, α7 integrin LacZ reporter signal relative to DMSO ([2]; 40 uM): 0.6717
Cc1ccc(NC(=O)NCc2nc3ccccc3n2C)cc1 [MLS001175592-01] | 0.8989 | 0.8859 | 0.9323 | 0.9006 | 0.9731 | 0.9405 | 0.9685 | 0.986 | 0.6911 | 1.034 | 0.6445 | 1.047 | 0.947 | 1.031 | 0.9649 | 1.018 | 
